Experimental data: patent US20210371817A1, “COMPOSITIONS AND METHODS FOR PRECISE PATTERNING OF POSTERIOR NEUROECTODERM FROM HUMAN PLURIPOTENT STEM CELLS” (WISCONSIN ALUMNI RESEARCH FOUNDATION, priority 2013, published 2021)
Entries after “also recorded” stand apart in the source; their conditions may differ.

Columns and labels:
[1] = tested on: neuromesodermal progenitors; assay: Neuroectoderm or mesoderm fate transition of neuromesodermal progenitors by flow cytometry; assay type: cell-based, human
Procedure: Assessment of neuroectoderm or mesoderm fate transition by flow cytometry. Grey histogram, IgG control; red histogram, antigen of interest. Data are presented as mean±standard deviation calculated from two biological replicates. (FIG. 8B) For experiments in panels FIGS. 8C-8F, neuromesodermal propagation was halted by removing FGF8b/CHIR 99021/GDF11 and adding RA. Assays were conducted after 4 days of RA treatment. (FIG. 8C) HOX profiles generated after RA treatment. Each gene is normalized to its maximum expression. Error bars are standard deviation calculated from duplicate reactions. (FIG. 8D) HoxB4 and HoxD10 expression in neuroepithelial cultures after RA treatment. Scale bars, 100 m. (FIG. 8E) Purity of Sox2, Pax6, HoxB4, and HoxD10 after 4 days of RA treatment. Sox2, Pax6, and HoxB4 were quantified using flow cytometry and HoxD10 was quantified by manual counting of dissociated cells ([…]). Error bars are standard deviation calculated from at least two biological replicates. […] (FIG. 8F) Motor neuron differentiation at cervical, thoracic, and lumbar spinal cord depths, where the motor neuron precursors show region-specific patterns of FoxP1, Isl1, and Hb9 co-expression. (FIG. 8G) Neuronal maturation from cervical, thoracic, and lumbar patterned NSCs, as assessed by immunocytochemistry (top panel; DAPI (blue) is overlaid in all images; Scale bars, 20 m) and RT-PCR (50 cycles; bottom panel).
Flow cytometry. Flow cytometry was conducted as described in the Examples above. Primary antibodies against Sox2 (mouse; 1:1000; Millipore), brachyury (goat; 1:200; R&D Systems), Pax6 (mouse; 1:200; DSHB), and HoxB4 (rat; 1:50; DSHB) were utilized. Samples were run on a FACSCaliber (BD Biosciences) and data were analyzed using Cyflogic software. Positive events were quantified by gating above the top 1% of species-matched IgG controls.
We next evaluated the transition of neuromesodermal progenitors to definitive neural progenitors. RA secreted from somites in response to declining FGF signaling elicits dorsal/ventral patterning and expression of the neuroectoderm marker Pax6 in vivo^16, 26, which led us to suspect RA serves as both the neuroectoderm fate switch and HOX ‘stop signal’. We first investigated the ability of RA to initiate neuroectoderm specification from neuromesodermal progenitors. […] At any point in neuromesodermal differentiation, the addition of RA generated highly pure (>83%) Pax6^+ neuroectoderm (FIGS. 8B-8E and FIGS. 9A-9C).

[2] = tested on: H9 hESCs; assay: HOX, OTX2 and T gene expression by RT-PCR/qPCR during hESC differentiation with morphogens; assay type: cell-based, human
Procedure: hPSC differentiation. hPSCs were washed once with phosphate-buffered saline (PBS; Invitrogen), dissociated with ACCUTASE® (Invitrogen) for 3 min, and collected by centrifugation. hPSCs were then seeded onto VTN-NC-coated plates in E8 medium containing 10 μM ROCK inhibitor (Y27632; R&D Systems). Seeding density was 2×10^5 cells/cm^2. The following day, the cells were switched to E6 medium (same composition as E8 medium minus FGF2 and TGFβ 1). Morphogen treatments were then carried out according to the figures in the text. Cells were supplemented with FGF8b (100-200 ng/ml; Peprotech), CHIR99021 (3-6 μM; Tocris), and/or RA (3 μM; Sigma).
Reverse transcriptase polymerase chain reaction (RT-PCR). Total RNA was extracted from cells using TRIZOL® reagent (Invitrogen) according to the manufacturer's instructions. RNA was then subjected to reverse-transcription using a Thermoscript™ RT-PCR kit (Invitrogen) in a 20 μL mixture according to the manufacturer's instructions. The resulting cDNA was then amplified in a 25 μL mixture containing 10×PCR buffer, 0.2 mM dNTP, 1.5 mM MgCl2, 0.5 μM of each primer, and 1 U Taq DNA polymerase (Invitrogen). Amplified products were resolved on 2% agarose gels containing SYBR Safe (Invitrogen) and visualized with a VersaDoc (BioRad). Primer sequences can be found in Table 3. All amplifications were carried out for 35 cycles. HOXC5 and HOXC6 were amplified at 58° C., all others with an annealing temperature of 55° C.
Propagation and differentiation of neuromesodermal progenitors. H9 hESCs (passage 25-45), H9 ishcat2 hESCs (passage 33-43), and IMR90-4 iPSCs (passage 31-40) were maintained in E8 medium on MATRIGEL© (BD Biosciences) as previously described. To initiate differentiation, hPSCs were passaged with ACCUTASE© (Life Technologies) onto vitronectin (VTN-NC)-coated plates at a density of 1×10^5 cells/cm^2 as previously described. The following day, cells were changed to E6 medium. 24 h later, cells were changed to E6 medium containing 200 ng/ml FGF8b (Peprotech). 24 h later, cells were washed once with 2 ml PBS, treated with ACCUTASE® for 2 min, and removed from the surface by gentle pipetting. After collection by centrifugation, cells were gently resuspended in E6 medium containing 200 ng/ml FGF8b and CHIR99021 (CHIR, concentration varied depending on cell line; Tocris) and re-seeded on VTN-NC-coated plates at a density of 1.5×10^5 cells/cm^2. Medium was not changed until 48 h after passaging. This passaging process was repeated on day 3 of CHIR 99021 treatment (re-seed density of 1.2×10^5 cells/cm^2) if extended neuromesodermal propagation was required, and 50 ng/ml GDF11 (Peprotech) was added on day 4 of CHIR 99021 treatment to initiate lumbar patterning. Cells were changed to E6 medium containing 1 μM retinoic acid (RA; Sigma) to facilitate neural transition.
qPCR. Total RNA was extracted from cultured cells using TRIZOL® (Life Technologies) according to the manufacturer's instructions. After isolation, 2-5 μg of total RNA was immediately subjected to reverse transcription using the Thermoscript™ RT-PCR kit (Life Technologies) in a 20 μL reaction according to the manufacturer's instructions. […] For all experiments, ΔΔCt values for each gene were calculated relative to ribosomal protein S18 (RPS18) RNA levels and converted to fold difference assuming 100% primer efficiency, then normalized to maximum expression levels as indicated in each figure legend. […]

[3] = tested on: IMR90-4 iPSCs; assay: Neuromesodermal differentiation from IMR90-4 iPSCs; assay type: cell-based, human
Procedure: FIGS. 11A-11C show neuromesodermal differentiation from IMR90-4 iPSCs. (FIG. 11A) Timeline of neuromesodermal differentiation. (FIG. 11B) Neuromesodermal identity assessed during differentiation in 2 or 3 μM CHIR 99021. Grey histograms, IgG control. Red histograms, label of interest. Data are presented as mean±standard deviation calculated from two biological replicates. […] (FIG. 11C) Colinear HOX activation observed by qPCR during neuromesodermal differentiation. Each gene is normalized to its maximum expression. Error bars are standard deviation calculated from duplicate reactions.
Differentiation was conducted according to the protocol of FIG. 11A. Neuromesodermal identity was assessed during differentiation in both 2 and 3 μM CHIR (FIG. 11B). Grey histograms are IgG control, and red histograms are the label of interest. […] During neuromesodermal propagation, progressive HOX activation was verified by qPCR (FIG. 11C).

[4] = tested on: neuromesodermal progenitors; assay: Accelerated neuronal differentiation of neuromesodermal progenitors; assay type: cell-based, human; settings: DAPT 1 μM; within 7 days
Procedure: For assessment of columnar identity by FoxP1 expression, cells were bulk passaged by scraping and re-seeded in VTN-NC-coated chamber slides at a 1:200 ratio in E6 medium containing 1 μM RA and 100 nM purmorphamine (PM; Cayman Chemicals). RA/PM treatment was carried out for 7 days, followed by an additional 7 day treatment with 10 ng/ml brain-derived neurotrophic factor (BDNF; Peprotech), 10 ng/ml glial-derived neurotrophic factor (GDNF; Peprotech), and cAMP (1 μM; Sigma). For accelerated neuronal differentiation, neuromesodermal progenitors were treated with 1 μM RA, 2 μM PM, and 1 μg/ml recombinant sonic hedgehog (SHH) for 2 days, then passaged with ACCUTASE® and re-seeded in VTN-NC coated chamber slides at 1×10^4 cells/cm^2 in E6 medium containing 1 μM RA, 1 μM DAPT (Cayman Chemicals), 10 ng/ml BDNF, 10 ng/ml GDNF, and 1 μM cAMP for 7 days.
Immunocytochemistry. Immunocytochemistry was conducted as previously described. Primary antibodies against Sox2 (1:500), brachyury (1:500), Pax6 (rabbit; 1:500; Covance), N-cadherin (mouse; 1:500; BD Biosciences), Otx2 (goat; 1:500; R&D Systems), HoxB4 (rat; 1:50; DSHB), HoxD10 (goat; 1:500; R&D Systems), NeuN (mouse; 1:100; Millipore), Hb9 (mouse; 1:50; DSHB), ISL1 (mouse; 1:100; DSHB), and FoxP1 (rabbit; 1:20,000; Abcam) were utilized. Samples were visualized on a Nikon Ti-E epifluorescence microscope or a Nikon AIR confocal microscope. […]

[5] = tested on: neuromesodermal cultures; assay: Effect of signaling pathway inhibitors on neuromesodermal identity (Sox2 and T by flow cytometry); settings: for Sox2+ cells: LY-294002 10 μM, U0126 10 μM, GF109203X 3 μM, or all three at 1 μM, after 2 days
From the text: (FIG. 13A) Timeline of neuromesodermal differentiation and inhibitor addition. (FIG. 13B) Neuromesodermal identity assessed by Sox2 and Brachyury (T) expression after two days. Grey histograms, IgG control. Red histograms, label of interest. LY, LY-294002; U0126, U0126; Gf, GF109203X.
In an attempt to identify which downstream signaling pathways are responsible for FGF's effects, we performed our protocol with various combinations of a PI3K inhibitor (LY-294002), an MEK inhibitor (U0126), and a PKC inhibitor (GF109203X), and measured Sox2 and T levels using flow cytometry.

[6] = tested on: neuromesodermal cells; assay: Pax6 and HoxD10 expression after GDF11 with or without dorsomorphin, then RA; assay type: cell-based, human; settings: dorsomorphin with GDF11 and throughout RA treatment
From the text: (FIG. 7A) Timeline of differentiation. (FIG. 7B) qPCR assessment of lumbar/sacral gene expression at day 12. A minimum concentration of GDF11 is required to activate HoxD10 and HoxA11. Each gene is normalized to the maximum GDF11 dose. Error bars are standard deviation calculated from duplicate reactions. (FIG. 7C) Expression of Pax6 in response to increased GDF11 concentrations. Data were collected by flow cytometry and represented as mean±standard deviation calculated from two biological replicates. Sox2 was uniformly expressed regardless of GDF11 treatment (data not shown). […] Grey histograms, IgG control; Red histograms, Pax6. Data are representative of two biological replicates. […] Percentages were quantified as HoxD10 labeling relative to DAPI-stained nuclei (>2500 total cells counted per sample). Scale bars, 100 μm
After neural tube closure in vivo, opposing gradients of TGFβ and SHH signaling produce distinct dorsal and ventral domains from which sensory neurons, interneurons, and motor neurons arise. Pax6, which has been identified as a neuroectoderm fate determinant, is expressed throughout most of the neural tube but is absent from the most dorsal and ventral domains. […] The ability of GDF11 to control rostral/caudal patterning is mediated by signaling via ALK5 and activation of the SMAD2/3 complex. […]

[7] = neuromesodermal progenitors exposed to E6 medium with the substance

## Cc1c[nH]c(-c2cnc(NCCNc3ccc(C#N)cn3)nc2-c2ccc(Cl)cc2Cl)n1 [CHIR 99021]
[1]; added with RA
  Effect on ability of RA to induce Pax6 expression: repressed its ability to induce Pax6 expression
[1]; [7]
  Brachyury+ cells: 96±1%
  Sox2+ cells: 50±8%
[2]; morphogen added to E6 medium, up to 4 days
  HOX gene activation (RT-PCR): could induce Hox gene expression; also recorded: induced progressive HOX activation from HOXA1 down to HOXC5
[2]; qPCR day 5, CHIR 99021 3 μM, RA 1 μM
  OTX2 expression reduction compared to RA: > 100 fold
[3]; 2 μM CHIR
  Neuromesodermal identity: maintained the neuromesodermal state
[3]; 3 μM CHIR
  Neuromesodermal identity: resulted in a mesodermal shift

## C[C@H](NC(=O)Cc1cc(F)cc(F)c1)C(=O)N[C@H](C(=O)OC(C)(C)C)c1ccccc1 [DAPT]
[4]
  NeuN+ neuronal lineage cells: > 95%

## CN(C)CCCn1cc(C2=C(c3c[nH]c4ccccc34)C(=O)NC2=O)c2ccccc21 [GF109203X]
[5]
  maximum dose that did not kill all cells: 3 µM
  Sox2+ cells: 99%

## O=c1cc(N2CCOCC2)oc2c(-c3ccccc3)cccc12 [LY-294002]
[5]
  Sox2+ cells: 99%

## N#CC(=C(/N)Sc1ccccc1N)/C(C#N)=C(\N)Sc1ccccc1N [U0126]
[5]
  Sox2+ cells: 99%

## c1cc(-c2cnn3cc(-c4ccc(OCCN5CCCCC5)cc4)cnc23)ccn1 [dorsomorphin]
[6]
  Pax6+ cells: 83±4%
